In assay [1] the test system is OSR1-GFP & SIX2-tdTomato reporter human iPS cell line. As to the kind of experiment: SIX2-positive cell induction method 1, SIX2-tdTomato-positive cell rate by flow cytometer. The format is cell-based. The settings on record: for SIX2-positive cell rate: induction method 1 stage 3, Dorsomorphin replaced with 0.5 μM LDN193189 and TGFβ1 with 10 ng/ml TGFβ2 or TGFβ3. As for the experimental part:
The OSR1-GFP & SIX2-tdTomato reporter human iPS cell line obtained by the method in Example 1 was cultured at 37° C. in a 2-5% CO2 atmosphere to become confluent on 10-cm dishes containing a primate ES/iPS cell medium (ReproCELL) supplemented with 5 ng/ml bFGF (Wako) with the use of SNL cells (McMahon, A. P. and Bradley, A. (1990) Cell 62; 1073-1085) (the cells being treated with 15.5 μg/ml mitomycin (Kyowa Hakko Kirin Co., Ltd.) for 2 to 3 hours and seeded at a density of 3×10^5 cells/10-cm dish) as feeder cells. A CTK solution (2.5% Trypsin (Invitrogen), 1 mg/ml Collagenase IV (Invitrogen), 0.1 M CaCl2, 10 mL KnockOut SR (Invitrogen), and 29.5 mL H2O) was added to dissociate the cells. After removal of the feeder cells, the dissociated cells were suspended in a DMEM/F12 medium containing 1 μM CHIR99021 (Stemgent, 04-0004), 100 ng/ml Activin A (R&D Systems, 338-AC), 1% GlutaMAX (100×) (Invitrogen, 35050-061), 2% FBS (Hyclone), and 0.5% PenStrep (Invitrogen, 10565). Then, the cell suspensions were transferred to a low cell binding plate (LOW CELL BIND 6 WELL DISH (Nunc, 145383)) such that each well contained one-third to one-sixth of the cell suspension obtained from the 10-cm dish, followed by suspension culture at 37° C. in a 5% CO2 atmosphere for 2 days.
The cell mass obtained at stage 1 was transferred to a 24-well or 6-well dish coated with Matrigel (BD Matrigel Matrix Growth Factor Reduced (BD Biosciences, 356230) (the dish being coated with 0.2 mg/ml Matrigel in DMEM and treated at 37° C. for 30 minutes or at 4° C. overnight) or a 24-well or 6-well dish coated with Synthemax (Corning Synthemax II-SC Substrate (Corning, 3535XX1)) (the dish being coated with Synthemax diluted 40-fold with sterile water and treated at room temperature for 2 hours). The medium was exchanged with a DMEM/F12 medium containing 1 μM CHIR99021, 100 ng/ml BMP7 (Recombinant human BMP7 (R&D Systems, 3534-BP)), 0.1% 2-mercaptoethanol (1000×) (Invitrogen, 21985), 1% GlutaMAX (100×), 10% KnockOut SR (Invitrogen), 0.1 mM MEM NEAA (Invitrogen, 11140), and 0.5% PenStrep, followed by adhesion culture at 37° C. in a 5% CO2 atmosphere for 3 to 6 days. In the case of culture for 3 days or more, the medium was exchanged every 3 days with a medium having the same conditions.
The medium was removed from the cells obtained at stage 2. The cells were washed with PBS and then the medium was exchanged with a DMEM/F12 medium containing 5 ng/ml TGFβ1 (Peprotech, 100-21C), 0.5 μM Dorsomorphin (AMPK Inhibitor, Compound C (Merck, 171260)), 0.1% 2-mercaptoethanol (1000×), 1% GlutaMAX (100×), 10% KnockOut SR, 0.1 mM MEM NEAA, and 0.5% PenStrep, followed by suspension culture at 37° C. in a 5% CO2 atmosphere for 15 to 22 days. In this case, the medium was exchanged every 3 days with a medium having the same conditions.
At stage 3 of SIX2-positive cell induction method 1, Dorsomorphin was replaced with 100 ng/ml Noggin (Peprotech), 0.5 μM LDN193189 (Axon MedChem, 1509), or 0.5 μM DMH1 (Tocris, 4126) for differentiation induction in the aforementioned manner.
At stage 3 of SIX2-positive cell induction method 1, TGFβ1 was exchanged with 50 μM IDE1 (Tocris) or 50 μM IDE2 (Tocris) for differentiation induction in the aforementioned manner.
At stage 3 of SIX2-positive cell induction method 1, Dorsomorphin was replaced with 0.5 μM LDN193189, while TGFβ1 with 10 ng/ml TGFβ2 (Peprotech) or 10 ng/ml TGFβ3 (R&D), for differentiation induction in the aforementioned manner. As a result, the SIX2-positive cell rates were 8.6% and 9.3%, respectively (FIGS. 2G and 2H).
On the technique in general: A flow cytometer gives signals particle by particle.

For assay [2], the system named is OSR1-GFP & SIX2-tdTomato reporter human iPS cell line (4A6C3-10). Nature of the assay: SIX2-positive cell induction method 4, OSR1+SIX2+ cell rate by flow cytometer. The format is cell-based. How it is done:
4A6C3-10 was cultured at 37° C. in a 2% to 5% CO2 atmosphere to become 70% to 80% confluent on 10-cm dishes containing a primate ES medium (ReproCELL) supplemented with 500 U/ml penicillin/streptomycin (Invitrogen) and 5 ng/ml recombinant human basic fibroblast growth factor (bFGF, Wako) with the use of ICR-mouse-embryo (fetus 12.5 days old)-derived mouse embryonic fibroblasts (MEF) or SNL feeder cells (McMahon, A. P. and Bradley, A. (1990) Cell 62; 1073-1085) (these cells being previously treated with 15.5 μg/ml mitomycin (Kyowa Hakko Kirin Co., Ltd.) for 2 to 3 hours and seeded at a density of 2×10^5 cells/6-cm dish) as feeder cells. The 10-cm plates containing the cells were rinsed with PBS and treated with a CTK solution (PBS containing 0.25% Trypsin (Invitrogen), 0.1% Collagenase IV (Invitrogen), 20% KnockOut SR (KSR, Invitrogen), and 1 mM CaCl2) at 37° C. for 4 minutes. The CTK solution was removed by rinsing with PBS. Then, the medium was exchanged with DMEM/F12+Glutamax (Invitrogen) containing 0.1 mM MEM NEAA (Invitrogen), 1000 U/ml penicillin/streptomycin, 0.55 mM 2-mercaptoethanol (Invitrogen), and 20% KSR. Subsequently, the cells were scraped using a cell scraper and seeded on 6-cm plates coated with 0.2% gelatin to remove feeder cells. One hour later, the cells were washed with DMEM/F12+Glutamax [stage-1 medium] containing 500 U/ml penicillin/streptomycin and 2% FBS (HyClone), transferred to ultra-low attachment dishes (Corning 3471) having a stage-1 medium containing 100 ng/ml recombinant human/mouse/rat Activin A (R&D Systems) and 1 μM CHIR99021, and cultured at 37° C. in a 5% CO2 atmosphere for 2 days.
In order to differentiate into the intermediate mesoderm, the cell mass (embryoid body (EB)) obtained at stage 1 was transferred to a 24-well plate coated with Synthemax II (Corning), the medium was exchanged with DMEM/F12+Glutamax containing 0.1 mM MEM NEAA, 500 U/ml penicillin/streptomycin, 0.55 mM 2-mercaptoethanol, 10% KSR, 100 ng/ml BMP7 (recombinant human BMP7, R&D Systems), and 1 μM CHIR99021, and the cells were cultured at 37° C. in a 5% CO2 atmosphere for 3 days.
After stage 2, the medium was exchanged with DMEM/F12+Glutamax containing 0.1 mM MEM NEAA, 500 U/ml penicillin/streptomycin, 0.55 mM 2-mercaptoethanol, 10% KSR, 1 μM TTNPB (Sigma T3757), and 5 ng/ml TGFβ1 (Peprotech), followed by culturing at 37° C. in a 5% CO2 atmosphere for 5 days. The medium was exchanged with a medium having the same conditions two days after the start of culture (i.e., day 8 from the start of stage 1 (day 1)).
After stage 3, the medium was exchanged with DMEM/F12+Glutamax containing 0.1 mM MEM NEAA, 500 U/ml penicillin/streptomycin, 0.55 mM 2-mercaptoethanol, 10% KSR, 5 ng/ml TGFβ1, and 0.5 μM DMH1 (Tocris), followed by culturing at 37° C. in a 5% CO2 atmosphere for 17 days (i.e., culturing for 28 days in total from the start of stage 1 (day 1); FIG. 3A). In this case, the medium was exchanged every 3 days with a medium having the same conditions. […] In addition, the OSR1^+SIX2^+ cell rate reached the maximum level on day 25 of culture and then it was confirmed to be maintained until day 28 of culture (FIG. 3D).
Induction of OSR1^+SIX2^+ cells from the 4A6C3-10 iPS cell line was examined using different combinations of TGFβ signaling activators and BMP inhibitors. Specifically, induction of OSR1^+SIX2^+ cells from 4A6C3-10 was examined under conditions 1) to 10) described below. […]

[3] abbreviates: induction method 1 stage 3, TGFβ1 exchanged with 50 μM IDE1 or 50 μM IDE2, with Dorsomorphin.
Setting [4] is: induction method 1 stage 3, Dorsomorphin replaced with 100 ng/ml Noggin, 0.5 μM LDN193189 or 0.5 μM DMH1, with TGFβ1.

Molecule `O=C(O)CCCCCC(=O)N/N=C\c1ccccc1C(=O)O` [IDE1, (Z)-2-((2-(6-carboxyhexanoyl)hydrazono)methyl)benzoic acid] had an SIX2-tdTomato-positive cell rate in assay [1] (setting [3]) of 8.4%. In the case of `c1ccc2c(-c3cnn4cc(-c5ccc(N6CCNCC6)cc5)cnc34)ccnc2c1` [LDN193189, 4-(6-(4-(piperazin-1-yl)phenyl)pyrazolo[1,5-a]pyrimidin-3-yl)quinoline], the SIX2-tdTomato-positive cell rate in assay [1] (setting [4]) came to 20.4%. On to `NC(=O)c1ccc(-c2nc(-c3ccc4c(c3)OCO4)c(-c3ccccn3)[nH]2)cc1` [SB431542], for which, in assay [2] (stage 4 medium with 10 μM SB431542 together with 5 ng/ml TGFβ1 and 0.5 μM DMH1 (condition 11)), the “differentiation into OSR1+SIX2+ cells” value was “inhibited”. Take `CC(C)Oc1ccc(-c2cnc3c(-c4ccnc5ccccc45)cnn3c2)cc1` [DMH1, 4-[6-[4-(1-Methylethoxy)phenyl]pyrazolo[1,5-a]pyrimidin-3-yl]-quinoline]: the SIX2-tdTomato-positive cell rate in assay [1] (setting [4]) stood at 15.4%. In addition, in assay [2] (Example 8, comparison of combinations of TGFβ signaling activators and BMP inhibitors at stage 4 (FIG. 4)), the “induction of OSR1+SIX2+ cells” value is given as “effective”. For the same molecule, the “OSR1-positive and SIX2-positive (OSR1+SIX2+) cell rate” value in assay [2] (induction method 4, stage 4 medium with 5 ng/ml TGFβ1 and 0.5 μM DMH1, day 28 of culture) amounted to 32.8%. Regarding `O=C(O)CCCCCC(=O)NN=C1CCCC1` [IDE2, 7-(2-cyclopentylidenehydrazinyl)-7-oxoheptanoic acid], the SIX2-tdTomato-positive cell rate in assay [1] (setting [3]) was 39.4%.

B1: TGFβ2: TGFβ signaling activator protein (Peprotech) (protein, UniProt P61812 303-414, looked up)
Transforming growth factor …: ALDAAYCFRNVQDNCCLRPLYIDFKRDLGWKWIHEPKGYNANFCAGACPYLWSSDTQHSRVLSLYNTINPEASASPCCVSQDLEPLTILYYIGKTPKIEQLSNMIVKSCKCS
Consider B1, for which the SIX2-positive cell rate in assay [1] turned out to be 8.6%.

B2: Noggin: BMP inhibitor protein (Peprotech) (protein, UniProt Q13253 28-232, looked up)
Noggin: QHYLHIRPAPSDNLPLVDLIEHPDPIFDPKEKDLNETLLRSLLGGHYDPGFMATSPPEDRPGGGGGAAGGAEDLAELDQLLRQRPSGAMPSEIKGLEFSEGLAQGKKQRLSKKLRRKLQMWLWSQTFCPVLYAWNDLGSRFWPRYVKVGSCFSKRSCSVPEGMVCKPSKSVHLTVLRWRCQRRGGQRCGWIPIQYPIISECKCSC
Consider B2, for which the SIX2-tdTomato-positive cell rate in assay [1] (setting [4]) was 7.5%.

B3: TGFβ3: TGFβ signaling activator protein (R&D, Peprotech) (protein, UniProt P10600 301-412, looked up)
Transforming growth factor …: ALDTNYCFRNLEENCCVRPLYIDFRQDLGWKWVHEPKGYYANFCSGPCPYLRSADTTHSTVLGLYNTLNPEASASPCCVPQDLEPLTILYYVGRTPKVEQLSNMVVKSCKCS
Take B3: the SIX2-positive cell rate in assay [1] came to 9.3%.

Values taken from patent US11225642B2, “Method for producing renal progenitor cells” (KYOTO UNIVERSITY, priority 2013, dated 2022).
